According to patent US9399626B2, “2-thiopyrimidinones” (Pfizer Inc., priority 2011, dated 2016):

The compounds below were run against T1, MPO (purified from human polynuclear leukocytes) (Homo sapiens, UniProt P05164) (assay: MPO Amplex Red Activity Assay). Conditions: Table 1, 2 μM H2O2, pH 7.4.
T1 construct: purified from human polynuclear leukocytes; purchased Calbiochem/EMD Biosciences; host or cells: human polynuclear leukocytes (natural source)
Assay type: biochemical
Procedure, shortened: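 Human leukocyte MPO […] oxidises 30 μM Amplex Red with 2 μM H2O2 in 50 mM NaPi pH 7.4, 150 mM NaCl, 1 mM DTPA, 2% DMSO. Resorufin fluorescence (ex 530/em 580 nm) read every 20 s, minus catalase background. kobs from the first 600 s, corrected for auto-inactivation, fit versus [I] for kinact/KI.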

T1 sequence (P05164 279-745 limits assumed): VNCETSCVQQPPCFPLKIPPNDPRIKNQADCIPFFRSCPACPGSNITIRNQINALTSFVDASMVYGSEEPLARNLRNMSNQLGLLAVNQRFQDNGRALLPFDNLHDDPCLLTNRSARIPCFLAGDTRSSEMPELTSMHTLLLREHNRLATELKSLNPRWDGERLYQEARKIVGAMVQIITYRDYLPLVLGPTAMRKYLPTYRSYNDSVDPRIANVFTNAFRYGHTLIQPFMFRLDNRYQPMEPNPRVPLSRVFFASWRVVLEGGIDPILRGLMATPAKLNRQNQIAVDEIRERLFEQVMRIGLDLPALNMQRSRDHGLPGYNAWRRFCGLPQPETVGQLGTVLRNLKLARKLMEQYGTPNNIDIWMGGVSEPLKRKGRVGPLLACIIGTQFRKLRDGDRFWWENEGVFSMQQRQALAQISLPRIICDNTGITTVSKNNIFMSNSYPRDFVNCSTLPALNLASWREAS
T1 sequence (P05164 165-273 limits assumed): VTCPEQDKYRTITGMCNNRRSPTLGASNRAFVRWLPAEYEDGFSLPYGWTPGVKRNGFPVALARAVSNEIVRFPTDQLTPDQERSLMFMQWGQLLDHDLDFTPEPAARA

SMILES	MPO kinact/Ki
COCCn1c(-c2ccc3ccccc3c2)cc(=O)[nH]c1=S [Example 276, 1-(2-methoxyethyl)-6-(2-naphthyl)-2-thioxo-2,3-dihydropyrimidin-4(1H)-one]	6710 1/s per M
COCCn1c(-c2ccco2)cc(=O)[nH]c1=S [Example 277, 6-(2-furyl)-1-(2-methoxyethyl)-2-thioxo-2,3-dihydropyrimidin-4(1H)-one]	767 1/s per M
COCCn1c(-c2ccn[nH]2)cc(=O)[nH]c1=S [Example 278, 1-(2-methoxyethyl)-6-(1H-pyrazol-5-yl)-2-thioxo-2,3-dihydropyrimidin-4(1H)-one]	1560 1/s per M
COCCn1c(-c2cccnc2)cc(=O)[nH]c1=S [Example 279, 1-(2-methoxyethyl)-6-pyridin-3-yl-2-thioxo-2,3-dihydropyrimidin-4(1H)-one]	386 1/s per M
COCCn1c(-c2cncnc2)cc(=O)[nH]c1=S [Example 280, 3-(2-methoxyethyl)-2-thioxo-2,3-dihydro-4,5′-bipyrimidin-6(1H)-one]	430 1/s per M
COCCn1c(-c2cccn2C)cc(=O)[nH]c1=S [Example 281, 1-(2-methoxyethyl)-6-(1-methyl-1H-pyrrol-2-yl)-2-thioxo-2,3-dihydropyrimidin-4(1H)-one]	1060 1/s per M
COCCn1c(-c2cccs2)cc(=O)[nH]c1=S [Example 282, 1-(2-methoxyethyl)-6-(2-thienyl)-2-thioxo-2,3-dihydropyrimidin-4(1H)-one]	1180 1/s per M
COCCn1c(-c2cccc(C)c2)cc(=O)[nH]c1=S [Example 283, 1-(2-methoxyethyl)-6-(3-methylphenyl)-2-thioxo-2,3-dihydropyrimidin-4(1H)-one]	2790 1/s per M
COCCn1c(-c2ccccc2C)cc(=O)[nH]c1=S [Example 284, 1-(2-methoxyethyl)-6-(2-methylphenyl)-2-thioxo-2,3-dihydropyrimidin-4(1H)-one]	1470 1/s per M
COCCn1c(-c2ccc(C)cc2)cc(=O)[nH]c1=S [Example 285, 1-(2-methoxyethyl)-6-(4-methylphenyl)-2-thioxo-2,3-dihydropyrimidin-4(1H)-one]	1750 1/s per M
COCCn1c(-c2ccc(O)cc2)cc(=O)[nH]c1=S [Example 286, 6-(4-hydroxyphenyl)-1-(2-methoxyethyl)-2-thioxo-2,3-dihydropyrimdin-4(1H)-one]	1500 1/s per M
COCCn1c(-c2cccc(O)c2)cc(=O)[nH]c1=S [Example 287]	2130 1/s per M
COCCn1c(-c2ccccc2O)cc(=O)[nH]c1=S [Example 288, 6-(2-hydroxyphenyl)-1-(2-methoxyethyl)-2-thioxo-2,3-dihydropyrimidin-4(1H)-one]	4230 1/s per M
COCCn1c(-c2cccc(F)c2)cc(=O)[nH]c1=S [Example 289, 6-(3-fluorophenyl)-1-(2-methoxyethyl)-2-thioxo-2,3-dihydropyrimidin-4(1H)-one]	1580 1/s per M
COCCn1c(-c2ccc(F)cc2)cc(=O)[nH]c1=S [Example 290, 6-(4-fluorophenyl)-1-(2-methoxyethyl)-2-thioxo-2,3-dihydropyrimidin-4(1H)-one]	1890 1/s per M
COCCn1c(-c2cccc(C#N)c2)cc(=O)[nH]c1=S [Example 291, 3-[3-(2-methoxyethyl)-6-oxo-2-thioxo-1,2,3,6-tetrahydropyrimidin-4-yl]benzonitrile]	2450 1/s per M
COCCn1c(-c2ccccc2CO)cc(=O)[nH]c1=S [Example 292, 6-[2-(hydroxymethyl)phenyl]-1-(2-methoxyethyl)-2-thioxo-2,3-dihydropyrimidin-4(1H)-one]	1070 1/s per M
COCCn1c(-c2cccc(OC)c2)cc(=O)[nH]c1=S [Example 293, 1-(2-methoxyethyl)-6-(3-methoxyphenyl)-2-thioxo-2,3-dihydropyrimidin-4(1H)-one]	1810 1/s per M
COCCn1c(-c2ccc(OC)cc2)cc(=O)[nH]c1=S [Example 294, 1-(2-methoxyethyl)-6-(4-methoxyphenyl)-2-thioxo-2,3-dihydropyrimidin-4(1H)-one]	1910 1/s per M
COCCn1c(-c2ccc(OC)nc2)cc(=O)[nH]c1=S [Example 295, 1-(2-methoxyethyl)-6-(6-methoxypyridin-3-yl)-2-thioxo-2,3-dihydropyrimidin-4(1H)-one]	793 1/s per M
COCCn1c(-c2ccncc2OC)cc(=O)[nH]c1=S [Example 296, 1-(2-methoxyethyl)-6-(3-methoxypyridin-4-yl)-2-thioxo-2,3-dihydropyrimidin-4(1H)-one]	1570 1/s per M

SMILES	MPO kinact/Ki
COCCn1c(-c2ccnc(OC)c2)cc(=O)[nH]c1=S [Example 297, 1-(2-methoxyethyl)-6-(2-methoxypyridin-4-yl)-2-thioxo-2,3-dihydropyrimidin-4(1H)-one]	762 1/s per M
COCCn1c(-c2ccc(Cl)cc2)cc(=O)[nH]c1=S [Example 298, 6-(4-chlorophenyl)-1-(2-methoxyethyl)-2-thioxo-2,3-dihydropyrimidin-4(1H)-one]	1080 1/s per M
COCCn1c(-c2ccccc2Cl)cc(=O)[nH]c1=S [Example 299, 6-(2-chlorophenyl)-1-(2-methoxyethyl)-2-thioxo-2,3-dihydropyrimidin-4(1H)-one]	2060 1/s per M
COCCn1c(-c2cccc(Cl)c2)cc(=O)[nH]c1=S [Example 300, 6-(3-chlorophenyl)-1-(2-methoxyethyl)-2-thioxo-2,3-dihydropyrimidin-4(1H)-one]	2460 1/s per M
COCCn1c(-c2ccc3cc[nH]c3c2)cc(=O)[nH]c1=S [Example 301, 6-(1H-indol-6-yl)-1-(2-methoxyethyl)-2-thioxo-2,3-dihydropyrimidin-4(1H)-one]	3330 1/s per M
COCCn1c(-c2cc3ccccc3[nH]2)cc(=O)[nH]c1=S [Example 302, 6-(1H-indol-2-yl)-1-(2-methoxyethyl) 2-thioxo-2,3-dihydropyrimidin-4(1H)-one]	3630 1/s per M
COCCn1c(-c2ccc3[nH]ccc3c2)cc(=O)[nH]c1=S [Example 303, 6-(1H-indol-5-yl)-1-(2-methoxyethyl)-2-thioxo-2,3-dihydropyrimidin-4(1H)-one]	5270 1/s per M
COCCn1c(-c2cccc3[nH]ccc23)cc(=O)[nH]c1=S [Example 304, 6-(1H-indol-4-yl)-1-(2-methoxyethyl)-2-thioxo-2,3-dihydropyrimidin-4(1H)-one]	6290 1/s per M
COCCn1c(-c2coc3ccccc23)cc(=O)[nH]c1=S [Example 305, 6-(1-benzofuran-3-yl)-1-(2-methoxyethyl)-2-thioxo-2,3-dihydropyrimidin-4(1H)-one]	6370 1/s per M
COCCn1c(-c2cc3ccccc3o2)cc(=O)[nH]c1=S [Example 306, 6-(1-benzofuran-2-yl)-1-(2-methoxyethyl)-2-thioxo-2,3-dihydropyrimidin-4(1H)-one]	6740 1/s per M
COCCn1c(-c2cccc3ccoc23)cc(=O)[nH]c1=S [Example 307, 6-(1-benzofuran-7-yl)-1-(2-methoxyethyl)-2-thioxo-2,3-dihydropyrimidin-4(1H)-one]	14400 1/s per M
COCCn1c(-c2ccc3c(c2)CCO3)cc(=O)[nH]c1=S [Example 308, 6-(2,3-dihydro-1-benzofuran-5-yl)-1-(2-methoxyethyl)-2-thioxo-2,3-dihydropyrimidin-4(1H)-one]	5340 1/s per M
COCCn1c(-c2ccc3c(c2)OCO3)cc(=O)[nH]c1=S [Example 309, 6-(1,3-benzodioxol-5-yl)-1-(2-methoxyethyl)-2-thioxo-2,3-dihydropyrimidin-4(1H)-one]	3160 1/s per M
CCOc1ccccc1-c1cc(=O)[nH]c(=S)n1CCOC [Example 310, 6-(2-ethoxyphenyl)-1-(2-methoxyethyl)-2-thioxo-2,3-dihydropyrimidin-4(1H)-one]	3110 1/s per M
CCOc1ccc(-c2cc(=O)[nH]c(=S)n2CCOC)cc1 [Example 311, 6-(4-ethoxyphenyl)-1-(2-methoxyethyl)-2-thioxo-2,3-dihydropyrimidin-4(1H)-one]	2080 1/s per M
COCCn1c(-c2cc(C)ccc2OC)cc(=O)[nH]c1=S [Example 312, 1-(2-methoxyethyl)-6-(2-methoxy-5-methylphenyl)-2-thioxo-2,3-dihydropyrimidin-4(1H)-one]	17100 1/s per M
CCOc1ccc(-c2cc(=O)[nH]c(=S)n2CCOC)cn1 [Example 313, 6-(6-ethoxypyridin-3-yl)-1-(2-methoxyethyl)-2-thioxo-2,3-dihydropyrimidin-4(1H)-one]	973 1/s per M
COCCn1c(-c2cnc(N(C)C)nc2)cc(=O)[nH]c1=S [Example 314, 2′-(dimethylamino)-3-(2-methoxyethyl)-2-thioxo-2,3-dihydro-4,5′-bipyrimidin-6(1H)-one]	429 1/s per M
COCCn1c(-c2ccc(OC)c(F)c2)cc(=O)[nH]c1=S [Example 315, 6-(3-fluoro-4-methoxyphenyl)-1-(2-methoxyethyl)-2-thioxo-2,3-dihydropyrimidin-4(1H)-one]	1420 1/s per M
COCCn1c(-c2ccc(OC)cc2F)cc(=O)[nH]c1=S [Example 316, 6-(2-fluoro-4-methoxyphenyl)-1-(2-methoxyethyl)-2-thioxo-2,3-dihydropyrimidin-4(1H)-one]	3060 1/s per M
COCCn1c(-c2cc(F)ccc2OC)cc(=O)[nH]c1=S [Example 317, 6-(5-fluoro-2-methoxyphenyl)-1-(2-methoxyethyl)-2-thioxo-2,3-dihydropyrimidin-4(1H)-one]	7380 1/s per M
